Experimental data published in US9963445B2, “Chemical compounds” (SYNGENTA PARTICIPATIONS AG, priority 2013, dated 2018).

Experiments:
Type in all cases: in vivo
[1] = system: Abutilon theophrasti; assay: Pre-emergence herbicidal activity, glasshouse pot test; settings: pre-emergence spray, rate 1000 g/ha, evaluated after 13 days, scale 0-5
How it was run: (§1)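 Seeds sown in standard soil were sprayed one day after sowing, before emergence, with compound formulated in acetone/water (50:50) plus 0.5% Tween 20. Plants were grown at 24/16 °C day/night, 14 h light, 65% humidity, watered twice daily, and damage was scored after 13 days (0 = none, 5 = total).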

[2] = system: Alopecurus myosuroides; assay: as above; settings: pre-emergence spray, rate 1000 g/ha, evaluated after 13 days, scale 0-5
How it was run: as §1

[3] = system: Amaranthus retroflexus; assay: as above; settings: pre-emergence spray, rate 1000 g/ha, evaluated after 13 days, scale 0-5
How it was run: as §1

[4] = system: Echinochloa crus-galli; assay: as above; settings: pre-emergence spray, rate 1000 g/ha, evaluated after 13 days, scale 0-5
How it was run: as §1

[5] = system: Setaria faberi; assay: as above; settings: pre-emergence spray, rate 1000 g/ha, evaluated after 13 days, scale 0-5
How it was run: as §1

[6] = system: zea mays; assay: as above; settings: pre-emergence spray, rate 1000 g/ha, evaluated after 13 days, scale 0-5
How it was run: as §1

[7] = system: Abutilon theophrasti; assay: Post-emergence herbicidal activity, glasshouse pot test; parameters: key: 0 = no damage to plant, 5 = total damage to plant; settings: Application post-emergence, rate 1000 g/ha, evaluated after 13 days
How it was run: (§2)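 Damage rated 0 (none) to 5 (total) 13 days after spraying. Plants were treated post-emergence at 8 days after sowing, using an acetone/water (50:50) formulation with 0.5% Tween 20 diluted to an aqueous spray.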

[8] = system: Alopecurus myosuroides; assay: as above; parameters: key: 0 = no damage to plant, 5 = total damage to plant; settings: Application post-emergence, rate 1000 g/ha, evaluated after 13 days
How it was run: as §2

[9] = system: Amaranthus retroflexus; assay: as above; parameters: key: 0 = no damage to plant, 5 = total damage to plant; settings: Application post-emergence, rate 1000 g/ha, evaluated after 13 days
How it was run: as §2

[10] = system: Echinochloa crus-galli; assay: as above; parameters: key: 0 = no damage to plant, 5 = total damage to plant; settings: Application post-emergence, rate 1000 g/ha, evaluated after 13 days
How it was run: as §2

[11] = system: Setaria faberi; assay: as above; parameters: key: 0 = no damage to plant, 5 = total damage to plant; settings: Application post-emergence, rate 1000 g/ha, evaluated after 13 days
How it was run: as §2

[12] = system: zea mays; assay: as above; parameters: key: 0 = no damage to plant, 5 = total damage to plant; settings: Application post-emergence, rate 1000 g/ha, evaluated after 13 days
How it was run: as §2

| SMILES | ABUTH damage score, application pre-emergence [1] | ALOMY damage score, application pre-emergence [2] | AMARE damage score, application pre-emergence [3] | ECHCG damage score, application pre-emergence [4] | SETFA damage score, application pre-emergence [5] | ZEAMX damage score, application pre-emergence [6] | ABUTH herbicidal damage score [7] | ALOMY herbicidal damage score [8] | AMARE herbicidal damage score [9] | ECHCG herbicidal damage score [10] | SETFA herbicidal damage score [11] | ZEAMX herbicidal damage score [12] |
| --- | --- | --- | --- | --- | --- | --- | --- | --- | --- | --- | --- | --- |
| COC1=C(C)C(O)N(c2cc(C)c(Br)cn2)C1=O (stereo not drawn) [AI32] | 0 | 2 | 5 | 4 | 2 | 1 | 5 | 5 | 5 | 5 | 5 | 2 |
| COC1=C(C)C(O)N(c2cc(C)c(C(=O)NC3(C#N)CC3)cn2)C1=O (stereo not drawn) [AI34] | 1 | 3 | 4 | 4 | 3 | 0 | 5 | 4 | 5 | 4 | 5 | 3 |
| CCC(C)(C)NC(=O)c1cnc(N2C(=O)C(OC)=C(C)C2O)cc1C (stereo not drawn) [AI35] | 5 | 4 | 5 | 5 | 5 | 2 | 5 | 5 | 5 | 5 | 5 | 3 |
| COC1=C(C)C(O)N(c2cc(C)c(C(=O)NC(C)C(C)C)cn2)C1=O (stereo not drawn) [AI36] | 5 | 4 | 5 | 4 | 5 | 2 | 5 | 5 | 5 | 5 | 5 | 3 |
| CCC(CNC(=O)c1cnc(N2C(=O)C(OC)=C(C)C2O)cc1C)C(F)(F)F (stereo not drawn) [AI37] | 5 | 4 | 5 | 5 | 5 | 2 | 5 | 5 | 5 | 5 | 5 | 5 |
| COC1=C(C)C(O)N(c2cc(C(F)(F)F)c(C(=O)CC#N)cn2)C1=O (stereo not drawn) [AI38] | 1 | 3 | 5 | 4 | 3 | 2 | 4 | 4 | 5 | 5 | 4 | 2 |
| COC1=C(Br)C(=O)N(c2cc(C(F)(F)F)ccn2)C1O (stereo not drawn) [AJ1, 4-bromo-2-hydroxy-3-methoxy-1-[4-(trifluoromethyl)-2-pyridyl]-2H-pyrrol-5-one] | 5 | 4 | 4 | 5 | 5 | 2 | 5 | 5 | 5 | 5 | 5 | 2 |
| COC1=C(OC)C(O)N(c2cc(F)ccn2)C1=O (stereo not drawn) [AK3] | 5 | 2 | 5 | 4 | 3 | 2 | 5 | 4 | 4 | 5 | 5 | 4 |
| COC1=C(OC)C(O)N(c2cc(C(F)(F)F)c(C(F)(F)F)cn2)C1=O (stereo not drawn) [AK4] | 1 | 1 | 1 | 0 | 0 | 1 | 5 | 3 | 5 | 5 | 3 | 2 |
| COC1=C(OC)C(O)N(c2cc(Br)ccn2)C1=O (stereo not drawn) [AK5] | 0 | 1 | 1 | 4 | 1 | 0 | 5 | 5 | 5 | 5 | 5 | 0 |
| COC1=C(OC)C(O)N(c2cc(OC)ccn2)C1=O (stereo not drawn) [AK6] | 0 | 0 | 0 | 0 | 0 | 0 | 1 | 1 | 0 | 1 | 0 | 0 |
| COC1=C(OC)C(O)N(c2cc(Cl)c(Cl)cn2)C1=O (stereo not drawn) [AK7] | 2 | 0 | 0 | 4 | 0 | 0 | 5 | 4 | 5 | 5 | 5 | 1 |
| COC1=C(OC)C(O)N(c2cc(C(F)(F)F)ccn2)C1=O (stereo not drawn) [AK8] | 5 | 3 | 5 | 4 | 3 | 2 | 5 | 4 | 5 | 5 | 5 | 3 |
| CC1=C(Cl)C(=O)N(c2cc(C(C)(C)C)c(Cl)nn2)C1O (stereo not drawn) [BF1] | 4 | 2 | 5 | 2 | 3 | 1 | 5 | 4 | 5 | 5 | 4 | 2 |
| COc1nnc(N2C(=O)C(Cl)=C(C)C2O)cc1C (stereo not drawn) [BF6] | 4 | 3 | 5 | 5 | 3 | 2 | 5 | 5 | 5 | 5 | 5 | 4 |
| CC1=C(Cl)C(=O)N(c2ccc(C(F)(F)F)nn2)C1O (stereo not drawn) [BF7] | 4 | 2 | 4 | 3 | 4 | 1 | 2 | 2 | 2 | 3 | 4 | 2 |
